Reference: patent publication US5498632A, “Esters of acyl carnitines with long-chain aliphatic alcohols and pharmaceutical compositions containing same having antibacterial activity” (Sigma-Tau Industrie Farmaceutiche Riunite S.p.A., priority 1992, dated 1996)

Legend:
[1] = tested on: H. pylori sessile cells (NCTC 11637); experiment: Bactericidal effect against H. pylori sessile cells (attached to HEp-2); assay type: cell-based, Helicobacter pylori
Description: (§1) The investigation aimed at evaluating the difference in susceptibility to ST 722 of planktonic and sessile Helicobacter cells, using in the latter case an "in vitro" experimental model, which closely resembled the clinical condition occurring "in vivo" in type-B gastritis. We used HEp-2 cells, an epithelial cell line which harbors the same membrane glycolipid receptors for H. pylori as those harbored by the mucous cells of the antral gastric mucosa (MEGRAUD, F., TRIMOULET, P., LAMOULIATTE, H. and BOYANOVA, L., 1991. Bacterial effect of Amoxicillin on "H. pylori" in an in vitro model using epithelial cells. Antimicrob. Agents Chemoter. 35 (5): 869-872 and LINGWOOD, C. A., LAW, H. and PELLIZANI, A., 1989. Gastric glycerolipid as a receptor for Campylobacter pylori. Lancet i: 238-241). Additionally, the viability of HEp-2 cells (either infected or not) was evaluated following "in vitro" ST 722 treatment. The degree of cytotoxicity was assessed by cytofiuorimetric analysis of Propidium Iodine-stained HEp-2 cells.
An HEp-2 epithelial cell line (a human larynx carcinoma) was used to permit the attachment of Helicobacter cells (sessile cells).
(§2) Helicobacter pylori NCTC 11637.
(§3) The antibacterial and cytotoxic activity of ST 722 against Helicobacter and HEp-2 cells, respectively, was evaluated by using 3 different ST 722 concentrations, namely 0.1, 1.56 (i.e. the MIC value vs. H. pylori NCTC 11637) and 4 mcg/ml.
A confluent HEp-2 cell culture is prepared, which is obtained after incubating the cell line in tissue culture flasks for 24 hours (37° C., 10% CO2, and ~96% humidity) in Columbia agar medium supplemented with Vitox and 7% defribinated horse serum. The bacteria are first harvested with DMEM medium 10% FCS, and then inoculated onto the HEp-2 cells to obtain a concentration of 5.0×10^6 CFU per flask (i.e. 2.0×10^5 CFU/cm^2).
Bacterial adhesion to the epitelial cells is favored by incubation for 2 hours at 37° C. and 5% CO2. After washing to remove the non attached bacteria. ST 722 is added (5 ml of 3 different concentrations) to the HEp-2 cell culture flasks.
Two additional flasks are added with 5 ml medium lacking ST 722, as Helicobacter growth controls.
At a predetermined time, the flasks were taken, the medium was discarded, and the cells were washed. The cells were harvested with a rubber policeman in 1 ml of phosphate-buffered saline and disrupted with an Ultraturax homogenizer.
(§4) After making geometric dilutions of the suspensions (0.1 ml of each dilution inoculated onto each plate in triplicate), the plates were incubated for 7 days in a microaerobic atmosphere, and the plates with 30 to 200 CFU were counted.
(§5) The ST 722 activity against Helicobacter planktonic cells was determined in the same experimental conditions in the absence of HEp-2 cells. Finally, the results are expressed as CFU per flask of each sample with respect to the relevant control (i.e. sessile or planktonic cultures).

[2] = tested on: Streptococcus faecalis (519); experiment: MIC in broth, Gram+ strains; assay type: cell-based; conditions: Enterococcus faecalis; S. faecalis (519), Mueller-Hinton broth, 37° C., 18 hours; read-out: Minimal Inhibitory Concentration (MIC)
Method: (§6) Evaluation of the Minimal Inhibitory Concentration (MIC) in broth of 15 new substances for Gram+ bacterial strains.
(§7) The following strains were used: Staphylococcus aureus (4); Streptococcus faecalis (8); Bacillus pumilus (1); Bacillus subtilis (1).
(§8) MICs were determined by a standard microdilution test, using serial two-fold dilutions of the substances in Mueller-Hinton broth.
(§9) The inoculum was prepared from an overnight culture in Mueller-Hinton broth matching the 0.5 Mc Farland (turbidity) standard (BRAY W. E., Clinical Laboratory Methods, 5th Ed. C. V. MOSBY, St. Louis, Mo. 1957), and was adjusted to a final concentration of 5.0×10^4 colony-forming units/ml.
(§10) Equal volumes (0.1 ml) of both bacterial suspensions and substance solutions were distributed in microtiter plates (Falcon, 96 wells, round bottom), and then placed in a humidified incubator (37° C.) for 18 hours.
(§11) The results, in terms of MIC values, resistant strain number and mean MIC values versus susceptible strains, are illustrated in Tables 1-6.

[3] = tested on: Staphylococcus aureus (ATCC 14154); experiment: MIC in broth, Gram+ strains; assay type: cell-based; conditions: ATCC14154, S. aureus (ATCC 14154), Mueller-Hinton broth, 37° C., 18 hours, read-out: Minimal Inhibitory Concentration (MIC)
Method: as §6, §7, §8, §9, §10, §11

[4] = tested on: Bacillus pumilus (CN 607); experiment: MIC in broth, Gram+ strains; assay type: cell-based; conditions: B. pumilus (CN 607), Mueller-Hinton broth, 37° C., 18 hours, read-out: Minimal Inhibitory Concentration (MIC)
Method: as §6, §7, §8, §9, §10, §11

[5] = tested on: Streptococcus faecalis (516); experiment: MIC in broth, Gram+ strains; assay type: cell-based; conditions: Enterococcus faecalis; S. faecalis (516), Mueller-Hinton broth, 37° C., 18 hours; read-out: Minimal Inhibitory Concentration (MIC)
Method: as §6, §7, §8, §9, §10, §11

[6] = tested on: Streptococcus faecalis (509); experiment: MIC in broth, Gram+ strains; assay type: cell-based; conditions: Enterococcus faecalis; S. faecalis (509), Mueller-Hinton broth, 37° C., 18 hours; read-out: Minimal Inhibitory Concentration (MIC)
Method: as §6, §7, §8, §9, §10, §11

HEp-2 cells = experiment: HEp-2 cell viability (Propidium Iodine cytofluorimetry); assay type: cell-based, human
Method: The investigation aimed at evaluating the difference in susceptibility to ST 722 of planktonic and sessile Helicobacter cells, using in the latter case an "in vitro" experimental model, which closely resembled the clinical condition occurring "in vivo" in type-B gastritis. […] Additionally, the viability of HEp-2 cells (either infected or not) was evaluated following "in vitro" ST 722 treatment. The degree of cytotoxicity was assessed by cytofiuorimetric analysis of Propidium Iodine-stained HEp-2 cells. […]
The antibacterial and cytotoxic activity of ST 722 against Helicobacter and HEp-2 cells, respectively, was evaluated by using 3 different ST 722 concentrations, namely 0.1, 1.56 (i.e. the MIC value vs. H. pylori NCTC 11637) and 4 mcg/ml. […]
Three and twenty-four hours following ST 722 addition, the cells were trypsinized and harvested by centrifugation at 800 g, The cell pellets were then resuspended in 500 μl PBS and additioned with 6 μl of a 1 mcg/ml Propidium Iodine stock solution in PBS, The same procedure was followed for the control, i.e. HEp-2 cells not infected with H. pylori. The cell suspensions were finally analyzed by means of a FACScan cytofluorimeter.

[7] = tested on: H. pylori planktonic cells (NCTC 11637); experiment: Bactericidal effect against H. pylori planktonic cells; assay type: cell-based, Helicobacter pylori
Description: as §1, §2, §3, §4, §5

CCCCCCCCCCCOC(=O)CC(C[N+](C)(C)C)OC(=O)CC(C)C [ST 722, Isovaleryl-L-Carnitine Undecyl Ester Chloride]
Sessile cells (CFU per flask) ([1]; 3-h contact, 0.1 mcg/ml): 9.50 × 10^2 CFU per flask | Sessile cells (CFU per flask) ([1]; 3-h contact, 1.56 mcg/ml): 9.50 × 10^2 CFU per flask | Sessile cells (CFU per flask) ([1]; 3-h contact, 4.0 mcg/ml): 4.50 × 10^2 CFU per flask | Sessile cells (CFU per flask) ([1]; 24-h contact, 0.1 mcg/ml): 4.35 × 10^5 CFU per flask | Sessile cells (CFU per flask) ([1]; 24-h contact, 1.56 mcg/ml): 1.80 × 10^5 CFU per flask | Sessile cells (CFU per flask) ([1]; 24-h contact, 4.0 mcg/ml): 1.75 × 10^5 CFU per flask | killing at 4 µg/mL ([1]; Helicobacter pylori, NCTC11637, HEp-2, 3-h contact, 4 mcg/ml, read-out: reduction of number of sessile bacterial cells): ~50% | MIC [2]: 3.12 µg/mL | MIC [3]: 3.12 µg/mL | MIC [4]: 1.56 µg/mL | MIC [5]: 1.56 µg/mL | MIC [6]: 3.12 µg/mL | cytotoxicity versus HEp-2 cells (HEp-2 cells; 4 mcg/ml (data not shown)): unable to induce detectable cytotoxicity | cytotoxicity versus HEp-2 cells (HEp-2 cells; Propidium Iodine staining): devoid of any cytotoxicity | Planktonic cells (CFU per flask) ([7]; 3-h contact, 0.1 mcg/ml): 9.50 × 10^5 CFU per flask | Planktonic cells (CFU per flask) ([7]; 3-h contact, 1.56 mcg/ml): 3.50 × 10^5 CFU per flask | Planktonic cells (CFU per flask) ([7]; 3-h contact, 4.0 mcg/ml): 1.00 × 10^5 CFU per flask | Planktonic cells (CFU per flask) ([7]; 24-h contact, 0.1 mcg/ml): 9.00 × 10^7 CFU per flask | Planktonic cells (CFU per flask) ([7]; 24-h contact, 1.56 mcg/ml): 4.05 × 10^6 CFU per flask | Planktonic cells (CFU per flask) ([7]; 24-h contact, 4.0 mcg/ml, control 5.35 × 10^8): 1.85×10^6 CFU per flask | complete medium sterilization ([7]; planktonic cells): a complete medium sterilization was not attained
